pIC50: −log10 of the molar value.
Legend:
Human-SGLT2 = target: T1, Human-SGLT2 (Homo sapiens, UniProt P31639); experiment: SGLT2 glucose transport assay ([14C]-labeled glucose uptake); format: cell-based; details: cells stably expressing Human-SGLT2, 37° C., 2 hours
T1 sequence (P31639 1-672): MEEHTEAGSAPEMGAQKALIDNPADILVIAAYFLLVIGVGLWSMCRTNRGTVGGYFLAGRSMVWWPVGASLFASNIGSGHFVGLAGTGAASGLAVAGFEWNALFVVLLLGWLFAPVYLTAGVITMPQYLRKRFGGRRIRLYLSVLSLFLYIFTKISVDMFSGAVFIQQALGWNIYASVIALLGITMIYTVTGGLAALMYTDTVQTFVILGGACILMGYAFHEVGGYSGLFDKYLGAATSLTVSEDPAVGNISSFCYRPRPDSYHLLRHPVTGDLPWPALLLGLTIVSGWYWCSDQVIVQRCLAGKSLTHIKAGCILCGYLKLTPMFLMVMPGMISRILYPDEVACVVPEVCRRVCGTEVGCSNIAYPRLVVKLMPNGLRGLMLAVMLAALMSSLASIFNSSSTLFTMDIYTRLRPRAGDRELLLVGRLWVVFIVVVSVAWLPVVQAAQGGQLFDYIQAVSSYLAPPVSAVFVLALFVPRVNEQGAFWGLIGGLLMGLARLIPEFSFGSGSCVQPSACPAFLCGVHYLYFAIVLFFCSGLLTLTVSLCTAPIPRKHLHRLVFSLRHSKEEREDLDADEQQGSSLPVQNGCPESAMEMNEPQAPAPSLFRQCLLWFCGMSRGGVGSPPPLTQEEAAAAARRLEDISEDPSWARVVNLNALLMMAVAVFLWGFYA
Protocol: To test the effect of compounds on the glucose transport activity of SGLT2 transporters by measuring the amount of [^14C]-labeled glucose entering highly expressed Human-SGLT2 cells.
The cells stably expressing Human-SGLT2 used for the experiments were constructed by WuXi AppTec Shanghai. SGLT2 cells were plated in 96-well cell culture plates (Greiner) and cultured overnight at 5% CO2, 37° C.
Experimental buffer: 10 mM 4-hydroxyethylpiperazine ethanesulfonic acid (HEPES), 1.2 mM magnesium chloride (MgCl2), 4.7 mM potassium chloride (KCl), 2.2 mM calcium chloride (CaCl2) and 120 mM sodium chloride (NaCl).
Termination buffer: 10 mM 4-hydroxyethylpiperazine ethanesulfonic acid (HEPES), 1.2 mM magnesium chloride (MgCl2), 4.7 mM potassium chloride (KCl), 2.2 mM calcium chloride (CaCl2), 120 mM sodium chloride (NaCl) and 1 μM LX4211.
The compounds were diluted with 100% dimethyl sulfoxide (DMSO) at a starting concentration of 10 μM, 8 points of 5-fold serial gradient dilution was made.
6 μM [^14C]-labeled methyl α-D-glucopyranoside was prepared with experimental buffer.
Cells were treated with 49 μL of experimental buffer, 1 μL of gradient-diluted compound, and 50 μL of 6 μM [^14C]-isotope-labeled glucose solution at 37° C. for 2 hours.
The liquid in the wells was aspirated and the cells were washed 3 times with termination buffer.
The cells were lysed with 50 μL of 10% sodium hydroxide solution, and the cell lysate was aspirated into a scintillation tube, and 2 mL of scintillation solution was added.
Readings were taken with an isotope detector (Tricarb).
The data were calculated by GraphPad Prism 5.0 software using the formula: log (inhibitor) vs. response—Variable slope to obtain the IC50 values of the tested compounds, and the experimental results are shown in Table 5.

SD Rat = experiment: Oral glucose tolerance (OGTT) in rats; format: in vivo; details: male SD rats, single gavage dose, Canagliflozin 3 mg/kg, test compound 10 mg/kg
Protocol: The animals will be acclimatized in the animal room for 1 week after arrival at the facility.
The animals are fasted for 16 hours in the metabolic cage and given the drug or solvent (5 mL/kg) according to the table above, followed immediately by 50% glucose solution (2 g/kg, 4 mL/kg).
After 1 hour of glucose administration, the animals resumed feeding, and blood samples were collected at 0 min, 20 min, 40 min, 60 min, 90 min and 120 min for blood glucose measurement; urine at 0 to 24 hours was used for urinary glucose (mg/200 g) and urine volume test, respectively.
All values were expressed as mean values. Statistical analysis was performed using Graphpad Prism 6 single factor analysis of variance Tukey's multiple comparison test. The p-value less than 0.05 was considered statistically significant.

Row | Compound | pIC50 (Human-SGLT2) | OGTT blood glucose levels AUC0-2hr (SD Rat; glucose 2 g/kg) [mmol/L/min] | Urinary glucose level (SD Rat; urine 0 to 24 hours) [mg/200 gBW] | Urine volume (SD Rat; urine 0 to 24 hours) [mL/200 gBW]
1 | CS[C@H]1O[C@@H](c2cc(Cc3ccc(O[C@@H]4CCN([C@H]5CO[C@H](c6cc(F)ccc6F)[C@@H](N)C5)C4)cc3)c(F)cc2F)[C@H](O)[C@@H](O)[C@@H]1O [WX006] | 8.15 | – | – | –
2 | CS[C@H]1O[C@@H](c2ccc(F)c(Cc3ccc(O[C@@H]4CCN([C@H]5CO[C@H](c6cc(F)ccc6F)[C@@H](N)C5)C4)cc3)c2)[C@H](O)[C@@H](O)[C@@H]1O [WX001] | 7.66 | 869 | 0.7 | 10.6
